Legend:
[1] = Negative allosteric modulator activity at human P-gp G1114L mutant expressed in HEK293FT cells assessed as reversal of P-gp mediated PTX resistance by measuring paclitaxel IC50 incubated for 5 days by MTS assay (Rvb = 4.5 +/- 1.1 nM)
[2] = Negative allosteric modulator activity at human P-gp Q1193K mutant expressed in HEK293FT cells assessed as reversal of P-gp mediated PTX resistance by measuring paclitaxel IC50 incubated for 5 days by MTS assay (Rvb = 466.2 +/- 72.3 nM)
[3] = Negative allosteric modulator activity at human wildtype P-gp expressed in HEK293FT cells assessed as reversal of P-gp mediated PTX resistance by measuring paclitaxel IC50 incubated for 5 days by MTS assay (Rvb = 540.5 +/- 20.3 nM)
[4] = Negative allosteric modulator activity at human P-gp G1114A mutant expressed in HEK293FT cells assessed as reversal of P-gp mediated PTX resistance by measuring paclitaxel IC50 incubated for 5 days by MTS assay (Rvb = 5.6 +/- 1.1 nM)
[5] = Negative allosteric modulator activity at human P-gp I1115A mutant expressed in HEK293FT cells assessed as reversal of P-gp mediated PTX resistance by measuring paclitaxel IC50 incubated for 5 days by MTS assay (Rvb = 7.5 +/- 2.4 nM)
[6] = Negative allosteric modulator activity at human P-gp L1113A mutant expressed in HEK293FT cells assessed as reversal of P-gp mediated PTX resistance by measuring paclitaxel IC50 incubated for 5 days by MTS assay (Rvb = 590 +/- 14.2 nM)
[7] = Negative allosteric modulator activity at human P-gp T1226F mutant expressed in HEK293FT cells assessed as reversal of P-gp mediated PTX resistance by measuring paclitaxel IC50 incubated for 5 days by MTS assay (Rvb = 409.9 +/- 19.7 nM)
[8] = Negative allosteric modulator activity at human P-gp I1115Y mutant expressed in HEK293FT cells assessed as reversal of P-gp mediated PTX resistance by measuring paclitaxel IC50 incubated for 5 days by MTS assay (Rvb = 6.9 +/- 1.2 nM)
[9] = Negative allosteric modulator activity at human P-gp Q1193C mutant expressed in HEK293FT cells assessed as reversal of P-gp mediated PTX resistance by measuring paclitaxel IC50 incubated for 5 days by MTS assay (Rvb = 359.4 +/- 22.3 nM)
[10] = Negative allosteric modulator activity at human P-gp Q1193F mutant expressed in HEK293FT cells assessed as reversal of P-gp mediated PTX resistance by measuring paclitaxel IC50 incubated for 5 days by MTS assay (Rvb = 453.6 +/- 14.8 nM)
[11] = Negative allosteric modulator activity at human P-gp I1115L mutant expressed in HEK293FT cells assessed as reversal of P-gp mediated PTX resistance by measuring paclitaxel IC50 incubated for 5 days by MTS assay (Rvb = 472 +/- 15.4 nM)
[12] = Negative allosteric modulator activity at human P-gp I1115N mutant expressed in HEK293FT cells assessed as reversal of P-gp mediated PTX resistance by measuring paclitaxel IC50 incubated for 5 days by MTS assay (Rvb = 10.2 +/- 1.6 nM)
[13] = Negative allosteric modulator activity at human P-gp H1195A mutant expressed in HEK293FT cells assessed as reversal of P-gp mediated PTX resistance by measuring paclitaxel IC50 incubated for 5 days by MTS assay (Rvb = 3.4 +/- 1.5 nM)
[14] = Negative allosteric modulator activity at human P-gp T1226A mutant expressed in HEK293FT cells assessed as reversal of P-gp mediated PTX resistance by measuring paclitaxel IC50 incubated for 5 days by MTS assay (Rvb = 6.3 +/- 2.1 nM)
[15] = Negative allosteric modulator activity at human P-gp Q1193E mutant expressed in HEK293FT cells assessed as reversal of P-gp mediated PTX resistance by measuring paclitaxel IC50 incubated for 5 days by MTS assay (Rvb = 395.8 +/- 13.4 nM)
[16] = Negative allosteric modulator activity at human P-gp I1115E mutant expressed in HEK293FT cells assessed as reversal of P-gp mediated PTX resistance by measuring paclitaxel IC50 incubated for 5 days by MTS assay (Rvb = 7.4 +/- 0.8 nM)
[17] = Negative allosteric modulator activity at human P-gp I1115F mutant expressed in HEK293FT cells assessed as reversal of P-gp mediated PTX resistance by measuring paclitaxel IC50 incubated for 5 days by MTS assay (Rvb = 663.1 +/- 10.2 nM)
[18] = Negative allosteric modulator activity at human P-gp I1115W mutant expressed in HEK293FT cells assessed as reversal of P-gp mediated PTX resistance by measuring paclitaxel IC50 incubated for 5 days by MTS assay (Rvb = 7.8 +/- 0.9 nM)
[19] = Negative allosteric modulator activity at human P-gp C1227A mutant expressed in HEK293FT cells assessed as reversal of P-gp mediated PTX resistance by measuring paclitaxel IC50 incubated for 5 days by MTS assay (Rvb = 352.1 +/- 30.6 nM)
[20] = Negative allosteric modulator activity at human P-gp Q1193T mutant expressed in HEK293FT cells assessed as reversal of P-gp mediated PTX resistance by measuring paclitaxel IC50 incubated for 5 days by MTS assay (Rvb = 523.6 +/- 33.7 nM)
[21] = Negative allosteric modulator activity at human P-gp T1226W mutant expressed in HEK293FT cells assessed as reversal of P-gp mediated PTX resistance by measuring paclitaxel IC50 incubated for 5 days by MTS assay (Rvb = 363.5 +/- 24.9 nM)
[22] = Negative allosteric modulator activity at human P-gp Q1193A mutant expressed in HEK293FT cells assessed as reversal of P-gp mediated PTX resistance by measuring paclitaxel IC50 incubated for 5 days by MTS assay (Rvb = 483.4 +/- 17.2 nM)
[23] = Negative allosteric modulator activity at human P-gp I1115M mutant expressed in HEK293FT cells assessed as reversal of P-gp mediated PTX resistance by measuring paclitaxel IC50 incubated for 5 days by MTS assay (Rvb = 9.8 +/- 0.9 nM)
[24] = Negative allosteric modulator activity at human P-gp G1114I mutant expressed in HEK293FT cells assessed as reversal of P-gp mediated PTX resistance by measuring paclitaxel IC50 incubated for 5 days by MTS assay (Rvb = 10.2 +/- 2.4 nM)
[25] = Negative allosteric modulator activity at human P-gp T1226Y mutant expressed in HEK293FT cells assessed as reversal of P-gp mediated PTX resistance by measuring paclitaxel IC50 incubated for 5 days by MTS assay (Rvb = 449.3 +/- 31.2 nM)
[26] = Negative allosteric modulator activity at human P-gp G1114V mutant expressed in HEK293FT cells assessed as reversal of P-gp mediated PTX resistance by measuring paclitaxel IC50 incubated for 5 days by MTS assay (Rvb = 3.4 +/- 0.5 nM)
[27] = Negative allosteric modulator activity at P-gp in human LCC6MDR cells overexpressing P-gp assessed as reversal of P-gp mediated PTX resistance by measuring paclitaxel IC50 incubated for 5 days by MTS assay
[28] = Negative allosteric modulator activity at human P-gp Q1193N mutant expressed in HEK293FT cells assessed as reversal of P-gp mediated PTX resistance by measuring paclitaxel IC50 incubated for 5 days by MTS assay (Rvb = 560.2 +/- 43.9 nM)
[29] = Negative allosteric modulator activity at human P-gp I1115K mutant expressed in HEK293FT cells assessed as reversal of P-gp mediated PTX resistance by measuring paclitaxel IC50 incubated for 5 days by MTS assay (Rvb = 6.2 +/- 2 nM)
[30] = Negative allosteric modulator activity at P-gp in human LCC6MDR cells overexpressing P-gp assessed as reversal of P-gp mediated paclitaxel resistance activity incubated for 5 days by MTS assay

O=c1cc(-c2ccc(OCCOCCNCc3ccccc3)cc2)oc2ccccc12
IC50 [1]: 4.8 nM
IC50 [2]: 48 nM
IC50 [3]: 7.4 nM
IC50 [4]: 4.3 nM
IC50 [5]: 6.3 nM
IC50 [6]: 4.2 nM
IC50 [7]: 6.9 nM
IC50 [8]: 8.2 nM
IC50 [9]: 29 nM
IC50 [10]: 81 nM
IC50 [11]: 10 nM
IC50 [12]: 9.9 nM
IC50 [13]: 4.7 nM
IC50 [14]: 4.6 nM
IC50 [15]: 93 nM
IC50 [16]: 7.6 nM
IC50 [17]: 43 nM
IC50 [18]: 8.3 nM
IC50 [19]: 5.2 nM
IC50 [20]: 61 nM
IC50 [21]: 6.4 nM
IC50 [22]: 112 nM
IC50 [23]: 7.9 nM
IC50 [24]: 8.6 nM
IC50 [25]: 7.2 nM
IC50 [26]: 3.5 nM
IC50 [27]: 3.8 nM
IC50 [28]: 11 nM
IC50 [29]: 7.8 nM

[N-]=[N+]=NCc1cc(CNCCOCCOc2ccc(-c3cc(=O)c4ccccc4o3)cc2)cc(N=[N+]=[N-])c1
EC50 [30]: 110 nM
IC50 [27]: 2.1 nM

C#CCNc1cc(C)cc2c(=O)cc(-c3ccc(OCCOCCNCc4ccc(C5(C(F)(F)F)N=N5)cc4)cc3)oc12
EC50 [30]: 733 nM
IC50 [27]: 280 nM

C#CCNc1cc(C)cc2c(=O)cc(-c3ccc(OCCOCCN(Cc4ccc(C5(C(F)(F)F)N=N5)cc4)Cc4ccc(C5(C(F)(F)F)N=N5)cc4)cc3)oc12
IC50 [27]: 312 nM

O=c1cc(-c2ccc(OCCOCCNCc3ccc(C4(C(F)(F)F)N=N4)cc3)cc2)oc2ccccc12
EC50 [30]: 107 nM
IC50 [27]: 2.3 nM

O=c1cc(-c2ccc(OCCOCCN(Cc3ccc(C4(C(F)(F)F)N=N4)cc3)Cc3ccc(C4(C(F)(F)F)N=N4)cc3)cc2)oc2ccccc12
EC50 [30]: 3010 nM
IC50 [27]: 158 nM

C#CCN(CCOCCOc1ccc(-c2cc(=O)c3ccccc3o2)cc1)Cc1ccc(C2(C(F)(F)F)N=N2)cc1
EC50 [30]: 602 nM
IC50 [27]: 57 nM

C#CCOc1cccc2oc(-c3ccc(OCCOCCNCc4ccc(C5(C(F)(F)F)N=N5)cc4)cc3)cc(=O)c12
EC50 [30]: 66 nM
IC50 [27]: 1.4 nM

O=c1cc(-c2ccc(OCCOCCOCCOCCOc3ccc(-c4cc(=O)c5c(O)cc(O)cc5o4)cc3)cc2)oc2cc(O)cc(O)c12
EC50 [30]: 900 nM

O=c1cc(-c2ccc(OCCOCCOCCOCCOc3ccc(-c4cc(=O)c5ccccc5o4)cc3)cc2)oc2ccccc12
EC50 [30]: 360 nM

O=c1cc(-c2ccc(O)cc2)oc2cc(O)cc(O)c12 [Naringenin, 18]
EC50 [30]: > 10000 nM

— BindingDB's records for doi:10.1021/acs.jmedchem.2c02005 (The Hong Kong Polytechnic University, 2023)
